# Key:
# myeloma cell line LP-1 = experiment: tetrazolium reduction (Promega MTS) assay with isobologram analysis, LP-1; format: cell-based, human
# Experimental: (§1) We investigated the cytotoxic effect of the HMG-CoA reductase inhibitor fluvastatin on the human multiple myeloma cell lines LP-1, OPM-2, U266, NCI-H929 and RPMI-8226 in vitro using a tetrazolium reduction assay. After 3 days culture in the presence of 0 to 50 μM fluvastatin, the Promega MTS assay reagent was used to determine the level of inhibition of cell proliferation and/or cell death.
# (§2) Using the same assay we investigated whether the activity of fluvastatin against multiple myeloma in vitro could be enhanced by the addition of the bisphosphonate Zometa® (zoledronic acid). Using 80% cell inhibition as an end point, isobolograms were constructed to visualize the interaction between fluvastatin and Zometa®.
# OPM-2 = experiment: tetrazolium reduction (Promega MTS) assay, OPM-2; format: cell-based, human; details: 3 days culture
# Experimental: as §1
# U266 = experiment: tetrazolium reduction (Promega MTS) assay, U266; format: cell-based, human; details: 3 days culture
# Experimental: as §1
# [1] = test system: human multiple myeloma cell lines LP-1, OPM-2, U266, NCI-H929 and RPMI-8226; experiment: tetrazolium reduction (Promega MTS) assay of cell proliferation and/or cell death, myeloma cell line panel; format: cell-based; details: 3 days culture, p<0.05 by paired Student's t-test
# Experimental: as §1
# as §2, with “Zometa®. […] To illustrate this point, >50 μM fluvastatin or […] Zometa® alone was required to induce 80% cell death in the myeloma cell line LP-1 but the combination of 25 μM fluvastatin and 0.21 μM Zometa® had the same effect.” for “Zometa®.”
Compound,concentration required to induce 80% cell death (myeloma cell line LP-1; Zometa alone),inhibition at 50 μM (OPM-2),inhibition at 50 μM (U266),"inhibition of proliferation ([1]; 25 μM and 50 μM, all cell lines)",fluvastatin concentration as low as which significantly inhibited proliferation ([1]; all cell lines except RPMI-8226),concentration required to induce 80% cell death (myeloma cell line LP-1; fluvastatin alone)
"O=P(O)(O)C(O)(Cn1ccnc1)P(=O)(O)O [Zometa®, 2-(imidazol-1yl)-1-hydroxyethane-1,1-diphosphonic acid]",> 100 µM,–,–,–,–,–
CC(C)n1c(/C=C/C(O)CC(O)CC(=O)O)c(-c2ccc(F)cc2)c2ccccc21 (stereo not drawn) [fluvastatin],–,> 90%,45%,significantly inhibited proliferation,2.5 µM,> 50 µM

# — patent US20060234985A1, “Combination therapy comprising a bisphosphonate and a hmg-coa reductase inhibitor” (priority 2002, published 2006)
